Test results published in patent publication US20150056209A1, “PEPTIDE MIMOTOPES TO OXIDATION SPECIFIC EPITOPES” (The Regents of the University of California, priority 2012, published 2015).

Tests used:
LRO4 [1] = assay: Competitive phage ELISA, phage binding to LRO4 in presence of MDA-LDL; parameters: species or system murine; details: in the presence of 50 μg/mL MDA-LDL
Protocol: For competitive phage ELISA, plates were coated with 5 μg/mL LRO4 and binding of 25 μL of phage solution at 2×10^10 pfu/mL was tested in the presence of 25 μL of MDA-LDL at 100 μg/mL. Bound phages were detected as described above and data expressed as values obtained in presence of competitor (B) divided by the values obtained in the absence of competitor (B0). A reciprocal competition assay was performed in which 50 μL of 5 μg/mL MDA-LDL was coated on microtiter wells, and binding of LRO4 that was preincubated for 30 min at RT with a solution containing either no or 1×10^10 pfu/mL phages with or without peptide was tested by chemiluminescent ELISA.
Table 2A-B. Binding characteristics of MDA-phagotopes. Sequences and binding characteristics of selected phagotopes from (A) the Ph.D.-12 and (B) the Ph.D.7C7 libraries, respectively. Individual phages were selected and amplified after the third round of biopanning, and binding to an isotype control IgM, LRO4, and LRO4 in the presence of 50 μg/mL MDA-LDL was measured by phage ELISA, as described in Methods. Numbers indicate OD values or for inhibition studies the fraction of OD values obtained in the absence and presence of soluble MDA-LDL (B/B0). Sequences indicate amino acid residues in peptide sequences that were deducted from the DNA sequence of each phagotope. “X” indicates an unidentified amino acid at this position. * for clones with identical sequence representative data of one clone are provided. (SEQ ID NOs:6-37)

LRO4 [2] = assay: Phage ELISA, binding of phage clones to coated LRO4; parameters: species or system murine; details: 10^10 pfu/ml, OD 405-490 nm
Protocol: (§1) Phage ELISA was performed as described by NEB with minor modifications. Ninety six-well ELISA plates (Nunc Maxisorp) were coated with 5 μg/mL LRO4 mAb or control IgM mAb in NaHCO3 buffer (pH 8.6) at 50 μL/well ON at 4° C. Wells were washed with TBS containing 0.5% Tween 20 and then blocked with blocking buffer (TBS-T containing 1% BSA) at 200 μL/well for 1 hour at RT. After further washing, 10^10 pfu/ml of phage amplificates diluted in blocking buffer were added to the wells at 50 μL/well for 2 hours at RT. Wells were washed again, and an HRP-labeled anti-M13 mAb conjugate (no. 27-9421-01; GE Healthcare, Amersham, UK) diluted 1:1,000 in blocking buffer was added for 1 hour at RT followed by the addition of an 2,2′-azino-bis(3-ethylbenzothiazoline-6-sulphonic acid) (ABTS) (Sigma-Aldrich) substrate solution for 1 hour at RT. The binding reactivity of selected phage clones was measured at OD 405-490 nm using a BioTek Synergy 2 plate reader.

isotype control IgM = assay: Phage ELISA, binding of phage clones to isotype control IgM; details: 10^10 pfu/ml, OD 405-490 nm
Protocol: Briefly, LRO4 or a control isotype anti-KLH IgM Ab (C48-6; BD Bioscience-Pharmingen, USA) were coated in buffer containing 0.1 M NaHCO3 (pH 8.5) on ELISA plates (Nunc Maxisorp, Roskilde, Denmark) overnight (ON) at 4° C. at a concentration of 100 μg/ml for the 1st, 50 μg/ml for the 2nd, and 10 μg/ml for the 3rd biopanning round. The next day, wells were washed with TBS containing 0.05% v/v Tween 20 (TBS-T) and incubated with blocking buffer containing 0.1M NaHCO3 (pH 8.6) and 5 mg/mL bovine serum albumin (BSA) for 1 hour at room temperature (RT). After further washing with TBS-T, 10 μL of a library solution (containing 2×10^12 phages) diluted in 100 μl of blocking buffer were first added to wells coated with control IgM (negative selection) and then unbound phages were transferred to wells coated with LRO4 (positive selection) and incubated at RT. The incubation time for negative or positive selection was reduced from 60 min for the 1st round to 30 min for the 2nd as well as 3rd biopanning round. Thereafter, plates were washed 5 times with TBS-T to remove unbound phages. To further elute nonspecifically bound phages, wells were incubated with 100 μL of 100 μg/ml of native LDL for 1 hour at RT. After washing up to 5 times with TBS-T, bound phages were eluted with 100 μL of elution buffer containing 0.2 M glycine-HCl (pH 2.2) and 1 mg/mL BSA. Eluates were transferred to microfuge tubes and neutralized with 15 μL of 1 M Tris-HCL (pH 9.1). The eluted phages were then titrated and amplified for the next round of panning. The 2nd and 3rd biopanning round was carried out using amplified eluates from the first and second round as input phages, respectively. To remove nonspecifically bound phages and to increase the affinity in the subsequent biopanning rounds, wells were washed 15 and 30 times with 0.1% TBS-T in the 2nd and 0.5% TBS-T in the 3rd rounds of biopanning, respectively. In the last biopanning round, LRO4-bound phages were competitively eluted with increasing concentrations (3-150 μg/mL) of MDA-LDL diluted in blocking buffer followed by elution using elution buffer.
as §1

[3] = Table 2A, Ph.D.-12 library clones
[4] = Table 2B, Ph.D.7C7 library clones

Substance	Inhibition of binding to LR04 (B/Bo) (LRO4 [1]; [3])	Binding of phages to LR04 (LRO4 [2]; [3])	Binding of phages to control IgM (isotype control IgM; [3])	Inhibition of binding to LR04 (B/Bo) (LRO4 [1]; [4])	Binding of phages to LR04 (LRO4 [2]; [4])	Binding of phages to control IgM (isotype control IgM; [4])
ADPFSPTNRIPL [M7]	0.10	1.37 OD	0.03 OD	–	–	–
ASISNLTLSRFM [M15]	0.15	1.34 OD	0.04 OD	–	–	–
DWAPHFT [Cb2]	–	–	–	0.03	1.0 OD	0.2 OD
ESWNTNSWAMYFG [M2]	0.20	1.17 OD	0.03 OD	–	–	–
ESWTNSWAHYFG [A36, B41, M35]	0.14	1.16 OD	0.03 OD	–	–	–
EVMNNWTLASIM [M30]	0.06	1.04 OD	0.03 OD	–	–	–
GWGNKTPSQDVH [A39]	0.19	1.19 OD	0.05 OD	–	–	–
HQLSNKDEQTPQ [A33]	0.14	0.63 OD	0.05 OD	–	–	–
HRISNYAMELHS [G4]	0.10	1.45 OD	0.04 OD	–	–	–
HRLTNSEQAALP [M3, M5]	0.10	1.56 OD	0.03 OD	–	–	–
HRMTNAMHHFMG [A38]	0.10	0.64 OD	0.21 OD	–	–	–
HRMTNNAMDVFM [M6, G10]	0.20	1.56 OD	0.03 OD	–	–	–
HSLSNIQMATLA [M10, G8]	0.10	1.16 OD	0.03 OD	–	–	–
HSLTNTQMTQLS [M31]	0.40	1.35 OD	0.03 OD	–	–	–
HSWSNYWGHQHA [A32]	0.18	0.98 OD	0.02 OD	–	–	–
KNSXQPL [Ca4]	–	–	–	0.13	0.9 OD	0.1 OD

Substance	Inhibition of binding to LR04 (B/Bo) (LRO4 [1]; [3])	Binding of phages to LR04 (LRO4 [2]; [3])	Binding of phages to control IgM (isotype control IgM; [3])	Inhibition of binding to LR04 (B/Bo) (LRO4 [1]; [4])	Binding of phages to LR04 (LRO4 [2]; [4])	Binding of phages to control IgM (isotype control IgM; [4])
NNQNMPL [Cb9]	–	–	–	0.02	0.7 OD	0.01 OD
NNRNMPL [Ca59, Cb1]	–	–	–	0.06	0.8 OD	0.1 OD
NNSHMPL [Ca9, Cb3, Ca8, Ca10]	–	–	–	0.04	0.9 OD	0.2 OD
NNSKMRL [Ca2]	–	–	–	0.12	0.8 OD	0.2 OD
NNSNMPL [Cb10]	–	–	–	0.02	0.6 OD	0.2 OD
NNSXMPL [Ca6]	–	–	–	0.04	0.7 OD	0.0 OD
NNWKMPL [Cb4]	–	–	–	0.02	0.6 OD	0.1 OD
NNWNMPL [Ca1, Ca7]	–	–	–	0.04	0.8 OD	0.1 OD
NNYNMPL [Cb589]	–	–	–	0.03	0.8 OD	0.1 OD
NSRTNNSQWTFQ [A34]	0.11	0.82 OD	0.11 OD	–	–	–
NSWTNASLSTFH [A40]	0.10	0.89 OD	0.04 OD	–	–	–
QNMNNWTLASIM [A31]	0.25	0.85 OD	0.08 OD	–	–	–
QNSHMPL [Ca3]	–	–	–	0.04	0.5 OD	0.1 OD
QSYTNDDVLRIS [M19]	0.25	1.67 OD	0.03 OD	–	–	–
TAVTNSMMERLW [M8]	0.20	1.57 OD	0.04 OD	–	–	–
